From patent US6855713B2, “Benzimidazole derivatives, a process for their manufacture and use as a medicine” (Boehringer Ingelheim Pharma KG, priority 2001, dated 2005)

These compounds were tested against T1, rh beta trypsin (Homo sapiens, UniProt P20231) (assay: Trypsin (tryptase) inhibition, cleavage of N-p-Gly-Pro-Lys-para-nitroaniline measured at 405 nm). Conditions: in vitro tests on the pro-drugs of formula IIA; read-out: IC50.
T1 construct: purchased Promega
Format: biochemical
Method: The compounds of the invention are notable for their effective trypsin-inhibiting property. The said capacity to inhibit trypsin activity was determined in accordance with the following trial descriptions.
The determinations are carried out in tris-HCl buffer (100 mM), that also contained calcium (5 mM) and heparin ([…]), at a pH of 7.4. As the standard, rh beta trypsin is used, this is commercially obtainable, for example, from Promega. A suitable substrate is N-p-Gly-Pro-Lys-para-nitroaniline in a concentration of 0.6 mM. The substrate is digested with trypsin, whereby p-nitro-aniline is obtained that can be measured at 405 nm. Normally, an incubation period of 5 minutes and an incubation temperature of 37° C. is chosen. For the enzyme activity, 0.91 U/ml are used. The determination is carriedout in an auto-analyser (Cobas Bio) from the firm Hoffmann LaRoche. The potential inhibitor substances are used in the screening procedure in concentrations of 10 μM, and the inhibition of the trypsin is given in percentages. At an inhibition in excess of 70%, the IC50 is determined (the concentration at which 50% of the enzyme activity is inhibited). After a 5-minute pre-incubation of the potential inhibiting substance, the substrate is added for the start of the reaction, whereby the production of p-nitro-aniline is taken, after 5 minutes, after testing the linearity, as a measure of the enzyme activity.

T1 sequence (P20231 31-275): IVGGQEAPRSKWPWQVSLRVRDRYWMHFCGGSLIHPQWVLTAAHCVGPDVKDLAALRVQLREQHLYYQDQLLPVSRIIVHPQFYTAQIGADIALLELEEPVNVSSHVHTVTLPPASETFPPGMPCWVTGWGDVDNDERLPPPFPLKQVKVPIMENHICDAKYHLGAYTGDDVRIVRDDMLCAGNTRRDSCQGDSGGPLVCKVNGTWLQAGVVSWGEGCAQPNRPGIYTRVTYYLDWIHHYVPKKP

Compound | IC50
CCOC(=O)N=C(N)c1ccc(CCc2nc3cc(C(=O)N4CCC(NC(=O)c5ccccc5)CC4)ccc3n2C)cc1 [IIA6] | 2490 nM

Same assay, conditions: in vitro; tris-HCl buffer pH 7.4 with calcium and heparin; substrate 0.6 mM; 5 minutes, 37° C.; read-out: Trypsin-inhibiting property

Compound | IC50
Cn1c(CCc2ccc(C(=N)N)cc2)nc2cc(C(=O)N3CCC(NC(=O)Nc4ccc(F)cc4F)CC3)ccc21 [Example 33, 4-[2-(5-{4-[3-(2,4-Difluoro-phenyl)-ureido]-piperidine-1-carbonyl}-1-methyl-1H-benzimidazole-2-yl)-ethyl]-benzamidine] | 1 to 20 nM
Cn1c(CCc2ccc(C(=N)N)cc2)nc2cc(C(=O)N3CCC(NC(=O)Nc4cccc(C(=O)O)c4)CC3)ccc21 [Example 62, [2-(4-Amidinophenyl)-ethyl]-1-methyl-benzimidazole-5-yl-carboxylic acid-{4-[3-(3-carboxyphenyl)-ureido]-piperidinyl}-amide] | 1 to 20 nM
Cn1c(CCc2ccc(C(=N)N)cc2)nc2cc(C(=O)N3CCC(NC(=O)Nc4ccccc4F)CC3)ccc21 [Example 27, 4-[2-(5-{4-[3-(2-Fluoro-phenyl)-ureido]-piperidine-1-carbonyl}-1-methyl-1H-benzimidazole-2-yl)-ethyl]-benzamidine] | 0.1 to 1 nM
CSc1cccc(NC(=O)NC2CCN(C(=O)c3ccc4c(c3)nc(CCc3ccc(C(=N)N)cc3)n4C)CC2)c1 [Example 58, 2-[2-(4-Amidinophenyl)-ethyl]-1-methyl-benzimidazole-5-yl-carboxylic acid-{4-[3-(3-methylsulfanyl)phenylureido]piperidinyl}-amide] | 0.1 to 1 nM
Cn1c(CCc2ccc(C(=N)N)cc2)nc2cc(C(=O)N3CCC(NC(=O)Nc4cccc(Br)c4)CC3)ccc21 [Example 43, 4-[2-(5-{4-[3-(3-Bromo-phenyl)-ureido]-piperidine-1-carbonyl}-1-methyl-1H-benzimidazole-2-yl)-ethyl]-benzamidine] | 0.1 to 1 nM
N=C(N)c1ccc(CCc2nc3cc(C(=O)N4CCC(NC(=O)c5ccccc5)CC4)ccc3n2C2CC2)cc1 [Example 196] | 20 to 50 nM
COc1ccccc1C(=O)NC1CCN(C(=O)c2ccc3c(c2)nc(CCc2ccc(C(=N)N)cc2)n3C)CC1 [Example 50, 2-[2-(4-Amidinophenyl)-ethyl]-1-methyl-benzimidazole-5-yl-carboxylic acid-[4-(2-methoxy)-benzamidopiperidinyl)-amide] | 1 to 20 nM
Cn1c(CCc2ccc(C(=N)N)cc2)nc2cc(C(=O)N3CCC(NC(=O)c4ccccc4O)CC3)ccc21 [Example 46, 2-[2-(4-Amidinophenyl)-ethyl]-1-methyl-benzimidazole-5-yl-carboxylic acid-[4-(2-hydroxy)-benzamidopiperidinyl)-amide] | 1 to 20 nM
Cn1c(CCc2ccc(C(=N)N)cc2)nc2cc(C(=O)N3CCC(NC(=O)c4cccc(Cl)c4Cl)CC3)ccc21 [Example 49, 2-[2-(4-Amidinophenyl)-ethyl]-1-methyl-benzimidazole-5-yl-carboxylic acid-[4-(2,3-dichloro)-benzamidopiperidinyl)-amide] | 1 to 20 nM
Cn1c(CCc2ccc(C(=N)N)cc2)nc2cc(C(=O)N3CCC(NC(=O)NC4CCCCC4)CC3)ccc21 [Example 40, 4-(2-{5-[4-(3-Cyclohexyl-ureido)-piperidine-1-carbonyl]-1-methyl-1H-benzimidazole-2-yl}-ethyl)-benzamidine] | 1 to 20 nM
COC(=O)c1cccc(NC(=O)N(C)C2CCN(C(=O)c3ccc4c(c3)nc(CCc3ccc(C(=N)N)cc3)n4C)CC2)c1 [Example 61, 2-[2-(4-Amidinophenyl)-ethyl]-1-methyl-benzimidazole-5-yl-carboxylic acid-{4-[3-(3-methoxycarbonyl)-phenyl-1-methyl-ureido]piperidinyl)-amide] | 1 to 20 nM
COC(=O)c1cccc(NC(=O)NC2CCN(C(=O)c3ccc4c(c3)nc(CCc3ccc(C(=N)N)cc3)n4C)CC2)c1 [Example 57, 2-[2-(4-Amidinophenyl)-ethyl]-1-methyl-benzimidazole-5-yl-carboxylic acid-{4-[3-(3-methoxycarbonyl)phenylureido]piperidinyl}-amide] | 1 to 20 nM
